From patent publication EP0097072A1, “Derivatives of benzylsulfinyl acetamides, their therapeutic use and process for their preparation” (LABORATOIRE L. LAFON Société anonyme dite:, priority 1982, dated 1983)

Legend:
Format in all cases: in vivo
souris mâle [1] = assay: Toxicity: DL-0 (maximal non-lethal dose); settings: male mouse, I.P. route
Description: (§1) Les résultats des essais qui ont été entrepris ont été résumés ci-après. Dans ces essais, le CRL 40569 (produit de l'exemple 1) en suspension dans une solution aqueuse de gomme arabique, et le CRL 40615 (produit de l'exemple 2) en solution dans de l'eau distillée ont été administrés par voie intrapéritonéale sous un volume de 20 ml/kg chez la souris mâle et sous un volume de 5 ml/kg chez le rat mâle.
La DL-0 (dose maximale non mortelle) chez la souris mâle par voie I.P. pour les CRL 40569 et CRL 40615 est supérieure à 1024 mg/kg.

souris mâle [2] = assay: Global behaviour and reactivities in the mouse; settings: I.P., 512 mg/kg, observed 15 min to 24 h after administration
Description: as §1
(§2) Des lots de 3 animaux par dose et par produit sont observés avant,puis 15 minutes, 30 minutes, 1 h, 2h, 3h et 24 h après administration des CRL 40569 et CRL 40615.

rat mâle = assay: Global behaviour and reactivities in the rat; settings: I.P.
Description: as §1, §2

souris [3] = assay: Action on spontaneous motility (actimeter); settings: mouse, recorded 30 min, starting half an hour after dosing
Description: as §1
Une demi-heure après avoir reçu les produits à tester, les souris (6 par dose et par produit, 12 témoins pour chaque produit) sont placées en actimètre ou leur motilité est enregistrée pendant 30 minutes.

rats = assay: Interaction with amphetamine (amphetamine stereotypies); settings: rat, 256 mg/kg I.P.; amphetamine 2 mg/kg I.P. half an hour after the compound
Description: as §1
Des lots de 6 rats reçoivent une injection par voie I.P. de 2 mg/kg d'amphétamine une demi-heure après le CRL 40569.

souris [4] = assay: Action on intergroup aggressiveness (number of fights); settings: mouse, notably at 512 mg/kg I.P.; groups joined half an hour after dosing, fights counted over 10 minutes
Description: as §1
Après avoir séjourné pendant 3 semaines de part et d'autre d'une cloison opaque séparant leur cage par le milieu, des groupes de 3 souris reçoivent le CRL 40615. Une demi-heure plus tard, les deux groupes d'une même cage sont réunis par retrait de la cloison et ou note le nombre de combats qui surviennent en 10 minutes.

Row | SMILES | DL-0 (dose maximale non mortelle) (souris mâle [1]) [mg/kg] | comportement global et réactivités (souris mâle [2]) | comportement global et réactivités (rat mâle; at none of the doses used (256, 64, 16 and 4 mg/kg)) | motilité spontanée (souris [3]; I.P., 32, 128 and 512 mg/kg) | intensité des stéréotypies amphétaminiques (rats) | comportement global et réactivités (souris mâle [2]; 128 mg/kg and 32 mg/kg) | comportement global et réactivités (rat mâle; 256 mg/kg) | motilité spontanée (souris [3]; I.P., high dose (512 mg/kg)) | nombre de combats (souris [4])
1 | COc1ccc(C[S+]([O-])CC(N)=O)cc1 (stereo not shown) [CRL 40569, 4-méthoxybenzylsulfinyl-acétamide] | > 1024 | diminution fugace de la réactivité au toucher, de la force et du tonus musculaire | n'a entraîné des modifications nettes du comportement et des réactivités | diminution de la motilité spontanée | diminue légèrement l'intensité des stéréotypies amphétaminiques |  |  |  | 
2 | COc1ccc(C[S+]([O-])CC(=O)NCCN2CCOCC2)cc1 (stereo not drawn) [CRL 40615, N-β-morpholinoéthyl-4-méthoxybenzylsulfinyl-acétamide] | > 1024 |  |  |  |  | sédation pendant 15 à 30 minutes puis une excitation tardive qui se manifeste 24 h après administration | diminution du tonus musculaire | diminue la motilité spontanée | diminue le nombre de combats
